{"source": "patent US11065335B2", "about": "“Methods of treating leukemia using compositions containing bis(benzylthio)octanoic acid and ion pairs thereof” (Rafael Pharmaceuticals, Inc., priority 2007, dated 2021)", "key": {"[1]": {"system": "A2780 human ovarian cancer cells", "assay": "CellTiter Glo cell viability assay, A2780 cells", "experimental": "(§1) Two types of human tumor cells were used in this investigation: BXPC3 human pancreatic cancer cells and A2780 human ovarian cancer cells. The BXPC3 cells were originally obtained from American Type Cell Culture (ATCC). The ovarian tumor cells were gifts from Roswell Park Cancer Institute, Buffalo, N.Y. All tumor cells were maintained at 37° C. in a humidified 5% CO2 atmosphere in T75 tissue culture flasks containing 20 mL of Roswell Park Memorial Institute (RPMI) 1640 containing 2 mM L-glutamine, 10% fetal bovine serum (FBS) and 1% penicillin and streptomycin (100 IU/mL penicillin and 100 μg/mL streptomycin). The tumor cells were split at a ratio of 1:5 every 4-5 days by trypsinization and resuspended in fresh medium in a new flask. Cells were harvested for experiments at 70-90% confluency.\n(§2) CPI-613 (i.e., 6,8-bis(benzylthio)octanoic acid) stock solutions at concentrations of 8, 4, 2, 1.5 and 0.5 mM were prepared in the appropriate vehicles. The molar ratio of vehicle to CPI-613 was maintained at 8:1. The corresponding vehicle concentrations were 64, 32, 16, 12, and 4 mM respectively. A sixty-four mM aliquot of vehicle was dissolved in 10 mL of water. Next, 8 mM of CPI-613 was added and the mixture was stirred until a clear solution was obtained. […] A 5 μL aliquot of this stock solution was added to 95 μL of tumor cells in media. Upon dilution in the wells, the corresponding drug concentrations were 400, 200, 100, 75 and 25 μM respectively.\n(§3) For the sodium salt and potassium salt form of CPI-613, 1 equivalent of CPI-613 solid was dissolved in water. Sixty-two mg of CPI-613 (0.00016 mol) was added to 10 mL of water, then 165 μL of 1M NaOH or KOH was added and stirred until a clear solution was obtained. This gave a 16 mM solution. The resulting 16 mM solution was then serially diluted, thereby providing 8 mM and 4 mM solutions of the CPI-613 salt form. For the ammonium salt, vehicle to drug ratio was maintained at 8:1 and the formulation was prepared using procedures analogous to those described above in Section 2 relating to preparation of CPI-613 formulations in different vehicles.\n(§4) CPI-613 formulated in 1M triethanolamine (TEA) was used as an internal control during formulation screening. To prepare a 16 mM of working stock of CPI-613, 50 mg/mL of CPI-613 (128.66 mM of CPI-613 in 1M TEA) was diluted in complete cell culture media containing 10% FBS. That is, 310 μL of a 128.66 mM solution of CPI-613 in 1M TEA was added to 2.19 mL of cell culture media. This stock was further diluted serially in complete media to give 8 mM, 4 mM 2 mM, 1.5 mM and 0.5 mM working solutions. On the day of testing, 5 μL of this working solution was added to 95 μL of cell culture media (20 fold dilution) resulting final concentrations of 400, 200, 100, 75 and 25 μM CPI-613, respectively. The ratio of CPI-613 to TEA was maintained at 1:8 ratio at all times.\n(§5) The cell viability of CPI-613 formulations formulated at a ratio of 1:8, CPI-613 to vehicle, was assessed by exposing the A2780 ovarian tumor cells and BXPC3 human pancreatic cancer cells to the following CPI-613 concentrations: 400 μM (3200 μM vehicle), 200 μM (1600 μM vehicle), 100 μM (800 μM vehicle), 75 μM (600 μM vehicle) and 25 μM (200 μM vehicle) The impact of corresponding vehicles at 3200, 1600 and 800 μM concentrations was also tested in tumor cells for cell viability. […] CPI-613 in TEA was used as an internal control. The tumor cells were treated for 24 hrs with the test article in serum-containing medium. After 24 hrs of treatment the number of viable tumor cells was determined.\n(§6) The number of cells targeted for the study was 4×10^3 per well in 100 μL of medium. The actual number of cells were counted and seeded in the wells of a 96 well-plate. The cells were incubated for ˜24 hrs before addition of CPI-613.\n(§7) For each cell line the concentrations of test articles or vehicles specified above was used."}, "[2]": {"system": "BXPC3 human pancreatic cancer cells", "assay": "CellTiter Glo cell viability assay, BXPC3 cells", "experimental": "as §1, §2, §3, §4, §5, §6, §7"}, "[3]": {"system": "BXPC3 human pancreatic cancer cells", "assay": "PI/Annexin Alexa Fluor 488 staining, FACS, type of cell death", "format": "cell-based", "conditions": "300 μM of CPI-613; 24 hours", "description": "Apoptotic cells will stain Annexin V positive but PI negative because the PI cannot cross the intact cell membrane. Necrotic cells will stain positive for both Annexin V and PI because the cell membrane is not intact.\nBxPC3 human pancreatic cancer cells were used in this investigation. These tumor cells were originally obtained from American Type Cell Culture (ATCC, Manassas, Va.). […] Cells were split at a ratio of 1:10 every 2-3 days by trypsinization and resuspended in fresh medium in a new flask. Cells were harvested for experiments in the same way at 70-90% confluency.\n2) A 1 mL aliquot of each test condition was added to corresponding well. Each treatment condition was run in duplicate. Cells were incubated for 24 hours with test conditions prior to PI/Annexin Staining.\n3) After 24 hours, cells, including floating cells, with media were harvested and centrifuged at 1,400 RPM for 5 minutes.\n4) For all samples the supernatant was aspired off, and the pellet was resuspended in 3 mL PBS and then centrifuged again at 1,400 RPM for 5 minutes, for a total of 2 washes.\nCells were incubated with PI/Annexin V for 8 minutes.\n6) The reaction was stopped by adding 400 μL 1× Annexin V binding buffer.\n7) Samples were then taken to FACS facility to be read on the FACS Scan Flow Cytometer."}, "[4]": {"conditions": "salt formulation at 200 μM, 24 hrs"}, "[5]": {"conditions": "salt formulation at 400 μM, 24 hrs"}}, "note": "Counter-ions that a name gives are not always drawn.", "data": [{"smiles": "O=C(O)CCCCC(CCSCc1ccccc1)SCc1ccccc1", "note": "(stereo not drawn) [CPI-613 sodium salt]", "values": [{"measurement": "A2780 Cell Viability (alkali salt formulations)", "setting": "[1]; CPI-613 200 μM, CPI-613 to base 1:1, 24 hrs", "value": "++++ (tumor cell viability of >10% up to 30%)"}, {"measurement": "viability at 25 µM", "setting": "[1]; Homo sapiens, A2780, 24 h, read-out: A2780 Cell Viability (alkali salt formulations), CPI-613 25 μM, CPI-613 to base 1:1", "value": "70 to 95", "unit": "%"}, {"measurement": "viability at 75 µM", "setting": "[1]; Homo sapiens, A2780, 24 h, read-out: A2780 Cell Viability (alkali salt formulations), CPI-613 75 μM, CPI-613 to base 1:1", "value": "70 to 95", "unit": "%"}, {"measurement": "viability at 100 µM", "setting": "[1]; Homo sapiens, A2780, 24 h, read-out: A2780 Cell Viability (alkali salt formulations), CPI-613 100 μM, CPI-613 to base 1:1", "value": "70 to 95", "unit": "%"}, {"measurement": "viability at 400 µM", "setting": "[1]; Homo sapiens, A2780, 24 h, read-out: A2780 Cell Viability (alkali salt formulations), CPI-613 400 μM, CPI-613 to base 1:1", "value": "< 10", "unit": "%"}, {"measurement": "cell kill in A2780 cells", "setting": "[1]; [4]", "value": "~65", "unit": "%"}, {"measurement": "cell kill in A2780 cells", "setting": "[1]; [5]", "value": "all the cells were killed"}, {"measurement": "BXPC3 Cell Viability (alkali salt formulations)", "setting": "[2]; CPI-613 75 μM, CPI-613 to base 1:1, 24 hrs", "value": "+ (tumor cell viability of >95%)"}, {"measurement": "viability at 25 µM", "setting": "[2]; Homo sapiens, BXPC-3, 24 h, read-out: BXPC3 Cell Viability (alkali salt formulations), CPI-613 25 μM, CPI-613 to base 1:1", "value": "> 95", "unit": "%"}, {"measurement": "viability at 100 µM", "setting": "[2]; Homo sapiens, BXPC-3, 24 h, read-out: BXPC3 Cell Viability (alkali salt formulations), CPI-613 100 μM, CPI-613 to base 1:1", "value": "70 to 95", "unit": "%"}, {"measurement": "viability at 200 µM", "setting": "[2]; Homo sapiens, BXPC-3, 24 h, read-out: BXPC3 Cell Viability (alkali salt formulations), CPI-613 200 μM, CPI-613 to base 1:1", "value": "30 to 70", "unit": "%"}, {"measurement": "viability at 400 µM", "setting": "[2]; Homo sapiens, BXPC-3, 24 h, read-out: BXPC3 Cell Viability (alkali salt formulations), CPI-613 400 μM, CPI-613 to base 1:1", "value": "< 10", "unit": "%"}, {"measurement": "cell kill in BXPC3 cells", "setting": "[2]; [4]", "value": "~50", "unit": "%"}, {"measurement": "cell kill in BXPC3 cells", "setting": "[2]; [5]", "value": "all the cells were killed"}, {"measurement": "type of cell death (apoptosis or necrosis)", "setting": "[3]", "value": "higher number of cells in the state of apoptotic death versus the number of cells in the state of necrotic death"}]}]}
